What all share (assay type): biochemical
The target in one assay is T1, PI3K α (p110α/p85α) (Homo sapiens, UniProt P42336).
T1 construct: purchased Upstate / Millipore Corporation
In words: PI 3-Kinase (human) HTRF assay, PI3K α. The following applies: read-out: PI3K α IC50. (In TR-FRET formats the signal depends on donor and acceptor labels being close together.)

The target of the next assay is T2, PI3K β (p110β/p85α) (Homo sapiens, UniProt P42338).
T2 construct: purchased Upstate / Millipore Corporation
T2 sequence (P42338 whole entry): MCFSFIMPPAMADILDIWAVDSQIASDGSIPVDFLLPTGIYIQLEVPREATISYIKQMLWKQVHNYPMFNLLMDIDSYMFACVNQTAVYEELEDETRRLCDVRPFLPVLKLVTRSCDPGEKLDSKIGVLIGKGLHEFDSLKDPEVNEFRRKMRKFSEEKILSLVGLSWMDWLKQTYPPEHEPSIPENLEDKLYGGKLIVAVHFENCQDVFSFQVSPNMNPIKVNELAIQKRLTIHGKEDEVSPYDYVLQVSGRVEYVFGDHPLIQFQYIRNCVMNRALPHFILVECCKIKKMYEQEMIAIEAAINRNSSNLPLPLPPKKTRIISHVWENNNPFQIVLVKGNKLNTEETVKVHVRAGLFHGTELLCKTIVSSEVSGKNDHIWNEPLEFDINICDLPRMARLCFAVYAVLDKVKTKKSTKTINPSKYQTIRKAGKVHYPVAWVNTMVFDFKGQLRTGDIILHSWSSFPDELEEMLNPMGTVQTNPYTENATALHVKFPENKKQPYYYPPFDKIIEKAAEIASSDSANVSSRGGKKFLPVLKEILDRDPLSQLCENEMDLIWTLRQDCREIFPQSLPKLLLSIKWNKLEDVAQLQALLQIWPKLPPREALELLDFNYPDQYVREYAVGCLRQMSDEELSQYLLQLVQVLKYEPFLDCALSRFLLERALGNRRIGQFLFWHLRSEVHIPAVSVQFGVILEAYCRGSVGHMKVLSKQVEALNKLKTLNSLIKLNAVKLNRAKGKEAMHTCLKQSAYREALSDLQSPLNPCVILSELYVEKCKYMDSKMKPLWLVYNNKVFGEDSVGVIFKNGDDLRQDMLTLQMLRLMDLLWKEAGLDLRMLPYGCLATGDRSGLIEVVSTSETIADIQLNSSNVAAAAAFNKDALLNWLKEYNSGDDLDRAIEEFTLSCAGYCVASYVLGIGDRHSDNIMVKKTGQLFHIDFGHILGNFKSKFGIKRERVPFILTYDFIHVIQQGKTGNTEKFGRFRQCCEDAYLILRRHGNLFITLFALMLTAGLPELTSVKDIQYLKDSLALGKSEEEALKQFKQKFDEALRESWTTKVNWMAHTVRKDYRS
T2 sequence (P27986 whole entry partner): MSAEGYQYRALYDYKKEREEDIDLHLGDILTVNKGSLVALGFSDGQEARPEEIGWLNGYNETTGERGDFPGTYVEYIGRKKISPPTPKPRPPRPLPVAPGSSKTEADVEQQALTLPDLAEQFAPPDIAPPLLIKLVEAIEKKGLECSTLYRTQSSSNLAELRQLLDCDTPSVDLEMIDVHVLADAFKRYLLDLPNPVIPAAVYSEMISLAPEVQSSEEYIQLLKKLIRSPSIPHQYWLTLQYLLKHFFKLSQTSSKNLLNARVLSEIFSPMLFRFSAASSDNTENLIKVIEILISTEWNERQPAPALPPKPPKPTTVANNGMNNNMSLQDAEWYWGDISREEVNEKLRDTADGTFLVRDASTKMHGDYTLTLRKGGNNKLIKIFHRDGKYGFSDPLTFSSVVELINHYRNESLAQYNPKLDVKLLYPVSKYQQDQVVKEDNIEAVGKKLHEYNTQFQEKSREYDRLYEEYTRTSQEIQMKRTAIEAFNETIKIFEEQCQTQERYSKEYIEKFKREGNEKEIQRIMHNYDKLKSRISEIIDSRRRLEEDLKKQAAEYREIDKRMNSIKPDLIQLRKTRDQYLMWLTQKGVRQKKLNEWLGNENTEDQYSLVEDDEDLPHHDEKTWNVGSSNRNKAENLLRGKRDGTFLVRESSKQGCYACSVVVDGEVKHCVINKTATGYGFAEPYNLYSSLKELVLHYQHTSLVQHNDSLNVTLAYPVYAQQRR
As to the kind of experiment: PI 3-Kinase (human) HTRF assay, PI3K β. Conditions: read-out: PI3K β IC50.

The target of a further assay is T3, PI3K δ (Homo sapiens, UniProt O00329).
T3 construct: purchased Upstate / Millipore Corporation
T3 sequence (O00329 whole entry): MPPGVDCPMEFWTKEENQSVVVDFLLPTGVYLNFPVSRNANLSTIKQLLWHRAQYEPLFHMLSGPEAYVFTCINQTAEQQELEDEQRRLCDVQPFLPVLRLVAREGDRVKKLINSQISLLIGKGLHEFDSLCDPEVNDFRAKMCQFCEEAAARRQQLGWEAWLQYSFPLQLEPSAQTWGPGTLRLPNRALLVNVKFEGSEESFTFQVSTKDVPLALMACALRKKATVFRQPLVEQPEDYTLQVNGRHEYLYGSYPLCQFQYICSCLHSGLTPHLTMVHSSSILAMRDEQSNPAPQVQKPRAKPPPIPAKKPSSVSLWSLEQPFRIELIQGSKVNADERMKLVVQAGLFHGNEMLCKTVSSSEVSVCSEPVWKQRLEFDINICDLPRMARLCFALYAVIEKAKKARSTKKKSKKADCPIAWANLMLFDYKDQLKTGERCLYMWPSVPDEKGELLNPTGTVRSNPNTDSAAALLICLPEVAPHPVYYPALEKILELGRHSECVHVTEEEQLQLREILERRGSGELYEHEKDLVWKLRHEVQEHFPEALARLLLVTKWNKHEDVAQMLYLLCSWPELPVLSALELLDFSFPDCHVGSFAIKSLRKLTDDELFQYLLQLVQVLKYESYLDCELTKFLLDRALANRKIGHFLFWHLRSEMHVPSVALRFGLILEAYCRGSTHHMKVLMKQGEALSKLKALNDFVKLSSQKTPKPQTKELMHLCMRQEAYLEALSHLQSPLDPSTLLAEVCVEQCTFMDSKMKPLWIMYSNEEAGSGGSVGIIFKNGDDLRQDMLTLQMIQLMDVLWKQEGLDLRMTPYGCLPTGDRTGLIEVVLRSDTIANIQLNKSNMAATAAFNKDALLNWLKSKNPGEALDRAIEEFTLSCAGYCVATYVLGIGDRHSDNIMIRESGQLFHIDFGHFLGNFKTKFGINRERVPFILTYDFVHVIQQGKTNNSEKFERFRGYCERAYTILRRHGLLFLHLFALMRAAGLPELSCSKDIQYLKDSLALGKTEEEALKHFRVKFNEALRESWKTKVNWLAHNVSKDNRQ
T3 sequence (P27986 whole entry partner): as the sequence (P27986 whole entry partner) above
As to the kind of experiment: PI 3-Kinase (human) HTRF assay, PI3K δ. Conditions: read-out: PI3K δ IC50.

The next assay has as its target T4, PI3K γ (p110γ) (Homo sapiens, UniProt P48736).
T4 construct: purchased Upstate / Millipore Corporation
As to the kind of experiment: PI 3-Kinase (human) HTRF assay, PI3K γ. Conditions: read-out: PI3K γ IC50.

pIC50: −log10 of the molar value.

T1 sequence (P42336 whole entry): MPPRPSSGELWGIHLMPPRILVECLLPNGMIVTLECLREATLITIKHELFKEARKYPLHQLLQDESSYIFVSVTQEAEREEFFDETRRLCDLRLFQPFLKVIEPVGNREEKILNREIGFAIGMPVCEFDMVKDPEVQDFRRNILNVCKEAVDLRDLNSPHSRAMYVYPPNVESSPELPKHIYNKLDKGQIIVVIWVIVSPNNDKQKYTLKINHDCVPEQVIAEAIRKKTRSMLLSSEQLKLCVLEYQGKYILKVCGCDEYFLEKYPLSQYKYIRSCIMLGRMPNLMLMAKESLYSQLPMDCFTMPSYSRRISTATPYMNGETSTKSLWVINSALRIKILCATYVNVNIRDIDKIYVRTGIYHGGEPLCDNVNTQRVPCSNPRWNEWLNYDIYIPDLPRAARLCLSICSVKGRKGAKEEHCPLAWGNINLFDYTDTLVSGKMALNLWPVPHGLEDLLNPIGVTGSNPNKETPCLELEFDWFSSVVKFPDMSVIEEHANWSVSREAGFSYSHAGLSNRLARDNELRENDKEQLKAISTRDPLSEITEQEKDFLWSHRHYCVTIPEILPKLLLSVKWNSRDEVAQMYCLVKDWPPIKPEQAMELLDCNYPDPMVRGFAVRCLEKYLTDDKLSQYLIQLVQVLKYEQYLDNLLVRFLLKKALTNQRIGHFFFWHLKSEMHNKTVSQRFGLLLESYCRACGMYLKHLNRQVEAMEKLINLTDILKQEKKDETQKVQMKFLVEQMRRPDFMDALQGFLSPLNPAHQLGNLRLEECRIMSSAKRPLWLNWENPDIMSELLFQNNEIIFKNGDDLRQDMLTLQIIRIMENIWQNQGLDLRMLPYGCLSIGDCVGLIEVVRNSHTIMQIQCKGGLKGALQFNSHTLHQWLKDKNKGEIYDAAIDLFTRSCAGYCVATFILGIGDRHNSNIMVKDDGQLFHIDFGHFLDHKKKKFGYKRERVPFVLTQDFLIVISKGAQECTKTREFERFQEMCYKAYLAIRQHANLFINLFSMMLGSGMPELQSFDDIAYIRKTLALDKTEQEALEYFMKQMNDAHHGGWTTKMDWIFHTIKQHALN
T1 sequence (P27986 whole entry partner): as the sequence (P27986 whole entry partner) above
T4 sequence (P48736 whole entry): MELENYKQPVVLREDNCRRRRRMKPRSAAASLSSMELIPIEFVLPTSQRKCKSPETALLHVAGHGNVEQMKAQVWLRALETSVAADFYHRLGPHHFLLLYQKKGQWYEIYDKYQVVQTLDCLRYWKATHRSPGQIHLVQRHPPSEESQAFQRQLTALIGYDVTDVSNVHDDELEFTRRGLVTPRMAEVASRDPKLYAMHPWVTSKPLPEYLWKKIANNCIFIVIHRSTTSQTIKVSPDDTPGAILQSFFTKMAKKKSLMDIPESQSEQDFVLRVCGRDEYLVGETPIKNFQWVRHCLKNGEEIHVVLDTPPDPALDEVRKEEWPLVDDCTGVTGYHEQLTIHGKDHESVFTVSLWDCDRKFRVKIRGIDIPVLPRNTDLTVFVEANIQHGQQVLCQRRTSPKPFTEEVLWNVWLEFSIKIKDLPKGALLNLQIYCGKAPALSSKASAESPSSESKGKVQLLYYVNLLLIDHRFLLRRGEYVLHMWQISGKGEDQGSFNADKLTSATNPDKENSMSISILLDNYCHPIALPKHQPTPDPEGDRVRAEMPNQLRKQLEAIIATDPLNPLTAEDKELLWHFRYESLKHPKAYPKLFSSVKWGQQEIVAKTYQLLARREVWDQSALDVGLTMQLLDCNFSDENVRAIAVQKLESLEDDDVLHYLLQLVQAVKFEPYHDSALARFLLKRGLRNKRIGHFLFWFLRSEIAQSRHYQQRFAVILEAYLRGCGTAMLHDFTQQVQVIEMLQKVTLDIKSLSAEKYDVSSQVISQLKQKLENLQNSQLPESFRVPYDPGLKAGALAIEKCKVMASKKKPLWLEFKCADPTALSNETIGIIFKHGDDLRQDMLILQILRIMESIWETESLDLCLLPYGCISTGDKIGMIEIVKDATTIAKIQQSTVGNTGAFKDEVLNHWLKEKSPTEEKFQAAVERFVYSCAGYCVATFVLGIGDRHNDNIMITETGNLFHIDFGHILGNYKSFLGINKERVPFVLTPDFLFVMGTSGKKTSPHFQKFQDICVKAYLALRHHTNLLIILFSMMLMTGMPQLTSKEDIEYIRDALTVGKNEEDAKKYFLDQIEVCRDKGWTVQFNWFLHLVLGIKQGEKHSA

As to `CS(=O)(=O)CCN1CCC(Nc2cnc3ccc(-c4ccc5oc(N)nc5c4)cc3n2)CC1` [Compound 181], the pIC50 was above 7.00 on PI3K α (p110α/p85α), above 5.00 at PI3K β (p110β/p85α), above 6.00 on PI3K δ and above 7.00 on PI3K γ (p110γ).
For `CC(C)(C)N1CCN(c2cnc3ccc(-c4ccc5oc(N)nc5c4)cc3n2)CC1` [Compound 182], the pIC50 on PI3K α (p110α/p85α) is above 7.00; on PI3K β (p110β/p85α), above 6.00; at PI3K δ it was above 6.00; on PI3K γ (p110γ) it was above 6.00.
On to `CCn1cnc2ccc(-c3ccc4oc(N)nc4c3)cc2c1=O` [Compound 183], for which the negative logarithm of the IC50 (pIC50) at PI3K α (p110α/p85α) is above 7.00; at PI3K β (p110β/p85α) it was above 5.00; on PI3K δ, above 5.00; at PI3K γ (p110γ), above 7.00.
Turning to `Nc1nc2cc(-c3ccc4ncn(CCO)c(=O)c4c3)ccc2o1` [Compound 184], the negative logarithm of the IC50 (pIC50) is above 7.00 at PI3K α (p110α/p85α), above 5.00 at PI3K β (p110β/p85α), below 5.00 at PI3K δ and above 6.00 on PI3K γ (p110γ).
Take `Cc1ncccc1-c1cnc2ccc(-c3ccc4oc(N)nc4c3)cc2n1` [Compound 185]: the pIC50 at PI3K α (p110α/p85α) was above 6.00; on PI3K β (p110β/p85α), below 5.00; on PI3K δ, below 5.00; at PI3K γ (p110γ), below 5.00.
Take `Nc1nc2cc(-c3ccc4ncc(C(=O)N5CCCC5)n4c3)ccc2o1` [Compound 186]: the negative logarithm of the IC50 (pIC50) on PI3K α (p110α/p85α) was above 7.00; on PI3K β (p110β/p85α) it was above 5.00; on PI3K δ, above 6.00; on PI3K γ (p110γ), above 7.00.
For `Nc1nc2cc(-c3ccc4ncc(C(=O)NC5CC5)n4c3)ccc2o1` [Compound 187], the pIC50 on PI3K α (p110α/p85α) was above 7.00; on PI3K β (p110β/p85α) it was above 5.00; on PI3K δ it was above 6.00; at PI3K γ (p110γ), above 7.00.
Regarding `Nc1nc2cc(-c3ccc4ncc(C(=O)NCCO)n4c3)ccc2o1` [Compound 189], the pIC50 at PI3K α (p110α/p85α) was above 7.00; on PI3K β (p110β/p85α), above 6.00; at PI3K δ, above 6.00; on PI3K γ (p110γ), above 6.00.
Turning to `CC(C)(C)N1CCN(C(=O)c2cnc3ccc(-c4ccc5oc(N)nc5c4)cn23)CC1` [Compound 191], the negative-log IC50 (pIC50) was above 7.00 at PI3K α (p110α/p85α), above 5.00 at PI3K β (p110β/p85α), above 5.00 at PI3K δ and above 5.00 on PI3K γ (p110γ).
`NCC(=O)N1CCN(c2cnc3ccc(-c4ccc5oc(N)nc5c4)cc3n2)CC1` [Compound 192]: the pIC50 is above 7.00 on PI3K α (p110α/p85α), above 6.00 at PI3K β (p110β/p85α), above 6.00 at PI3K δ and above 6.00 at PI3K γ (p110γ).
`COC(=O)N1CCN(c2cnc3ccc(-c4ccc5oc(N)nc5c4)cc3n2)CC1` [Compound 193]: the pIC50 is above 7.00 on PI3K α (p110α/p85α), above 6.00 on PI3K β (p110β/p85α), above 5.00 on PI3K δ and above 7.00 on PI3K γ (p110γ).
With `Cc1ccc(-c2cnc3ccc(-c4ccc5oc(N)nc5c4)cc3n2)cn1` [Compound 194], the negative logarithm of the IC50 (pIC50) at PI3K α (p110α/p85α) was above 7.00; on PI3K β (p110β/p85α), below 5.00; at PI3K δ, below 5.00; at PI3K γ (p110γ), above 7.00.
In the case of `Nc1nc2cc(-c3ccc4ncc(-c5ccccn5)nc4c3)ccc2o1` [Compound 195], the pIC50 on PI3K α (p110α/p85α) was above 6.00; at PI3K β (p110β/p85α), above 5.00; at PI3K δ it was below 5.00; at PI3K γ (p110γ), above 7.00.
Take `Nc1nc2cc(-c3ccc4ncc(C(=O)N5CCCCC5)n4c3)ccc2o1` [Compound 196]: the negative logarithm of the IC50 (pIC50) at PI3K α (p110α/p85α) is above 6.00; on PI3K β (p110β/p85α), above 5.00; on PI3K δ it was below 5.00; at PI3K γ (p110γ) it was above 5.00.
Consider `Nc1nc2cc(-c3ccc4ncc(C(=O)N5CCC5)n4c3)ccc2o1` [Compound 197], for which the negative-log IC50 (pIC50) on PI3K α (p110α/p85α) was above 7.00; at PI3K β (p110β/p85α), above 5.00; on PI3K δ, above 5.00; on PI3K γ (p110γ), above 7.00.
Take `CS(=O)(=O)CCN1CCC(NC(=O)c2cnc3ccc(-c4ccc5oc(N)nc5c4)cn23)CC1` [Compound 199]: the pIC50 is above 7.00 on PI3K α (p110α/p85α), above 5.00 on PI3K β (p110β/p85α), above 7.00 on PI3K δ and above 7.00 on PI3K γ (p110γ).
Turning to `Nc1nc2cc(-c3ccc4ncc(C(=O)N5CC(O)C5)n4c3)ccc2o1` [Compound 200], the pIC50 was above 7.00 at PI3K α (p110α/p85α), above 5.00 at PI3K β (p110β/p85α), above 5.00 at PI3K δ and above 7.00 on PI3K γ (p110γ).
As to `CC1CN(C(=O)c2cnc3ccc(-c4ccc5oc(N)nc5c4)cn23)CCO1` (stereo not drawn) [Compound 201], the negative-log IC50 (pIC50) at PI3K α (p110α/p85α) is above 7.00; on PI3K β (p110β/p85α), above 5.00; at PI3K δ it was below 5.00; at PI3K γ (p110γ) it was above 5.00.
As for `CN1CCC(NC(=O)c2cnc3ccc(-c4ccc5oc(N)nc5c4)nn23)CC1` [Compound 203], the pIC50 was above 7.00 at PI3K α (p110α/p85α), above 7.00 at PI3K β (p110β/p85α), above 6.00 at PI3K δ and above 7.00 on PI3K γ (p110γ).
For `Nc1nc2cc(-c3ccc4ncn(C5CCC5)c(=O)c4c3)ccc2o1` [Compound 205], the pIC50 on PI3K α (p110α/p85α) is above 7.00; at PI3K β (p110β/p85α), below 5.00; at PI3K δ it was below 5.00; on PI3K γ (p110γ), below 5.00.
Take `CC(C)n1cnc2ccc(-c3ccc4oc(N)nc4c3)cc2c1=O` [Compound 206]: the pIC50 on PI3K α (p110α/p85α) was above 7.00; on PI3K β (p110β/p85α), below 5.00; on PI3K δ, below 5.00; on PI3K γ (p110γ) it was above 6.00.
In the case of `C[C@H](N)C(=O)N1CCN(c2cnc3ccc(-c4ccc5oc(N)nc5c4)cc3n2)CC1` [Compound 207], the pIC50 on PI3K α (p110α/p85α) was above 7.00; on PI3K β (p110β/p85α) it was above 7.00; at PI3K δ it was above 6.00; at PI3K γ (p110γ) it was above 7.00.
With `C[C@@H](N)C(=O)N1CCN(c2cnc3ccc(-c4ccc5oc(N)nc5c4)cc3n2)CC1` [Compound 208], the negative logarithm of the IC50 (pIC50) was above 7.00 on PI3K α (p110α/p85α), above 6.00 at PI3K β (p110β/p85α), above 6.00 at PI3K δ and above 5.00 on PI3K γ (p110γ).
As to `Nc1nc2cc(-c3ccc4ncc(N5CCC(O)C5)nc4c3)ccc2o1` (stereo not drawn) [Compound 209], the negative-log IC50 (pIC50) on PI3K α (p110α/p85α) is above 7.00; on PI3K β (p110β/p85α), above 6.00; at PI3K δ, above 5.00; at PI3K γ (p110γ), above 7.00.
Take `Nc1ncc(-c2cnc3ccc(-c4ccc5oc(N)nc5c4)cc3n2)cn1` [Compound 210]: the negative logarithm of the IC50 (pIC50) at PI3K α (p110α/p85α) is above 6.00; on PI3K β (p110β/p85α), below 5.00; on PI3K δ, below 5.00; at PI3K γ (p110γ) it was below 5.00.
On to `CC(=O)N1CCC(Nc2ncnc3ccc(-c4ccc5oc(N)nc5c4)nc23)CC1` [Compound 211], for which the negative-log IC50 (pIC50) at PI3K α (p110α/p85α), on PI3K β (p110β/p85α), on PI3K δ and on PI3K γ (p110γ) was above 7.00 in each case.
`CN1CCC(Nc2ncnc3ccc(-c4ccc5oc(N)nc5c4)nc23)CC1` [Compound 212]: the pIC50 at PI3K α (p110α/p85α) is above 7.00; on PI3K β (p110β/p85α), above 6.00; at PI3K δ it was above 6.00; on PI3K γ (p110γ), above 6.00.
Consider `CNC(=O)C1CN(c2cnc3ccc(-c4ccc5oc(N)nc5c4)cc3n2)C1` [Compound 214], for which the pIC50 was above 7.00 on PI3K α (p110α/p85α), above 7.00 on PI3K β (p110β/p85α), above 5.00 at PI3K δ and above 6.00 at PI3K γ (p110γ).
Regarding `Nc1nc2cc(-c3ccc4ncc(N5CC(C(=O)NC6CC6)C5)nc4c3)ccc2o1` [Compound 215], the negative logarithm of the IC50 (pIC50) was above 7.00 at PI3K α (p110α/p85α), above 6.00 at PI3K β (p110β/p85α), above 5.00 at PI3K δ and above 6.00 at PI3K γ (p110γ).
Take `CN(C)CC(=O)N1CCN(c2cnc3ccc(-c4ccc5oc(N)nc5c4)cc3n2)CC1` [Compound 217]: the pIC50 at PI3K α (p110α/p85α) is above 7.00; at PI3K β (p110β/p85α), above 6.00; on PI3K δ it was above 6.00; at PI3K γ (p110γ) it was above 6.00.

Usually pIC50 stands for the negative decadic logarithm of the IC50, by convention in mol/L.

The values above are taken from patent publication US20150087627A1, “COMBINATION OF KINASE INHIBITORS AND USES THEREOF” (Intellikine LLC, priority 2011, published 2015).
